pIC50: −log10 of the molar value. Counter-ions that a name gives are not always drawn.
How the values were obtained:
[1] = tested on: histamine-stimulated acid secretion; assay: Inhibitory activities of gastric-acid secretion in the acute fistula rat; format: in vivo; details: 50 mg/kg oral, histamine.2HCl 10 mg/kg s.c. 4 hours after compound, Male Wistar rats, read-out: Total acid inhibition (inhibitory percent of compounds on histamine-stimulated acid secretion)
Description: Inhibitory activities of gastric-acid secretion in the acute fistula rat.
Determination of gastric-acid secretion is performed by the method of Y. Goto et al.(Expenentia 32, 946, (1976)). Male Wistar rats are anesthetized with urethane (1.2 g/kg, i.p.) 2 hours after the oral administration of compounds. A dual polyethylene cannula is introduced into the gastric lumen after ligation of the pylorus and the esophagus. The stomach is rinsed with 5 ml of saline through the gastric cannula at 15 min interval. The acid output during 15 minutes period is titrated with 0.01N NaOH. Histamine.2HCl (10 mg/kg, s.c.) is administered as a secretory agent 4 hours after the administration of compounds.

(H^+, K^+)ATPase = target: T1, (H^+, K^+)ATPase (Sus scrofa, UniProt P19156); assay: Inhibition of (H^+, K^+)ATPase activities; format: biochemical; details: pig gastric mucosa ATPase; pH 7.4; 2 mM MgCl2; 10 mM KCl; 37° C; read-out: (H^+,K^+)ATPase IC50 (Concentration of 50% inhibition)
T1 construct: ATPase is prepared from the pig gastric mucosa; from tissue; host or cells: pig gastric mucosa
T1 sequence (P19156 2-1034 limits assumed): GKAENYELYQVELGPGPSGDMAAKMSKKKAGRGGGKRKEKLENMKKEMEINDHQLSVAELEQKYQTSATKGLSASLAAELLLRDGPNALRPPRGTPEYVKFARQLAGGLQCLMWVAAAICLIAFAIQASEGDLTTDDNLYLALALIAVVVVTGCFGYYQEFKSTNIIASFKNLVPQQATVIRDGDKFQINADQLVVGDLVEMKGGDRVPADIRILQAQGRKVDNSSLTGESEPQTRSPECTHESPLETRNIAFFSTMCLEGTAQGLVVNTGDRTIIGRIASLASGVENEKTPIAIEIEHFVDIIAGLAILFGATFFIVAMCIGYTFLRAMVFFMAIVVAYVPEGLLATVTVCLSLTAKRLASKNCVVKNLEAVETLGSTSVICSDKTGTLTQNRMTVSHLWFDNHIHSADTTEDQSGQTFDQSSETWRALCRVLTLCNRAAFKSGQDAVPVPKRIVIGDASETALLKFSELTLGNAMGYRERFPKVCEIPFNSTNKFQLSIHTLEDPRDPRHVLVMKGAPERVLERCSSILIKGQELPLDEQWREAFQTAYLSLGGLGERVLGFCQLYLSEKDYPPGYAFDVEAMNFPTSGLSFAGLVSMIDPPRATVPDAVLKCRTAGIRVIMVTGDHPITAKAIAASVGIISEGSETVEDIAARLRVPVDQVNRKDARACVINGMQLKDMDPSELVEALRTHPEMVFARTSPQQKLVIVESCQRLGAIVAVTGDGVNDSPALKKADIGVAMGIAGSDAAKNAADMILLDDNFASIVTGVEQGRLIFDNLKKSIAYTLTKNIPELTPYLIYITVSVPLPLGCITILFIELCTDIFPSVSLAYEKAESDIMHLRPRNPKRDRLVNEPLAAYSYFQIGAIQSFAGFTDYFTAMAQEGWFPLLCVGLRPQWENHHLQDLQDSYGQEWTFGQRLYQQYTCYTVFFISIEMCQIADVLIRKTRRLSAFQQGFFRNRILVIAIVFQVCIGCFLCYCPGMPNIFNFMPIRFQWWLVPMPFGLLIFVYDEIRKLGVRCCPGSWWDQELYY
T1 sequence (P18434 whole entry partner): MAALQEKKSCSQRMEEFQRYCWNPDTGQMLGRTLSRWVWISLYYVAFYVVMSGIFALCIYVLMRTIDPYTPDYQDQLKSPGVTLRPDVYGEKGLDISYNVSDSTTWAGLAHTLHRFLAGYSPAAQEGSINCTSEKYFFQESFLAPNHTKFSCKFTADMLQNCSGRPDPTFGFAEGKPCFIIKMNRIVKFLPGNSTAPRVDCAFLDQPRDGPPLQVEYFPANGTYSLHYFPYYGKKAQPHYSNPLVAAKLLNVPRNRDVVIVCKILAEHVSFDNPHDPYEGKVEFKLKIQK
Description: Inhibition of (H^+, K^+)ATPase activities. Inhibition of (H^+, K^+)ATPase activities is determined by the method of F. Fellenius et al., [Nature 290, 159-61, (1981)]. (H^+, K^30 )ATPase is prepared from the pig gastric mucosa and the test compound is incubated with 2 mM of […], 40 mM of tris-buffer (pH 7.4), 2 mM of MgCl2 and 10 mM of KCl at 37° C. Inorganic phosphate occurring by stimulation of ATPase is determined.

Row | pIC50 ((H^+, K^+)ATPase) | SMILES | inhibition in vivo at 50 mg/kg [1]
1 | 4.76 | CCC(=O)Sc1c(C)nc2nc3cccccc3n12 [Compound 66, 3-(Propionyl)thio-2-methyl-cyclohept[d]imidazo[1,2-a]imidazole] | 63.7%
2 | 4.33 | CC#CCSc1c2ccccn2c2nc3c(n12)CCCCC3 [Compound 19, 13-(2-Butynyl)thio-pyrido[1',2':3,4]imidazo[1,2-a]-7,8,9,10,11pentahydro-cycloheptimidazole] | –
3 | 4.88 | C/C=C/C(=O)Sc1c(-c2ccccc2)nc2nc3cccccc3n12 [Compound 38, 3-(Crotonoyl)thio-2-phenyl-cyclohept[d]imidazo[1,2-a]imidazole] | 63.4%
4 | 4.64 | C/C=C/C(=O)Sc1c(C)nc2nc3cccccc3n12 [Compound 69, 3-(Crotonoyl)thio-2-methyl-cyclohept[d]imidazo[1,2-a]imidazole] | 83.5%
5 | 5.66 | C=CC(=O)Sc1c(-c2ccccc2)nc2nc3cccccc3n12 [Compound 37, 3-(Acryloyl)thio-2-phenyl-cyclohept[d]imidazo[1,2-a]imidazole] | 51.5%
6 | 4.04 | c1ccn2c(c1)c(SCCN1CCCCC1)n1c3c(nc12)CCCCC3 [Compound 23, 13-[2-(1-Piperidino)ethyl]thio-pyrido[1',2':3,4]imidazo[1,2-a]7,8,9,10,11-pentahydro-cycloheptimidazole] | –
7 | 4.26 | COCCC(=O)Sc1c(C)nc2nc3cccccc3n12 [Compound 75, 3-(3-MethoxyPropionyl)thio-2-methyl-cyclohept[d]imidazo[1,2-a]imidazole] | –
8 | 5.55 | Cc1nc2nc3cccccc3n2c1SC(=O)C(C)C [Compound 81, 3-(isobutyryl)thio-2-methyl-cyclohept[d]imidazo[1,2-a]imidazole] | 79.8%
9 | 5.23 | COCC(=O)Sc1c(C)nc2nc3cccccc3n12 [Compound 72, 3-(Methoxyacetyl)thio-2-methyl-cyclohept[d]imidazo[1,2-a]imidazole] | –
10 | 5.85 | CC(=O)Sc1c(-c2ccc(F)cc2)nc2nc3cccccc3n12 [Compound 55, 3-(acetyl)thio-(4-fluorophenyl)-cyclohept[d]imidazo[1,2-a]imidazole] | –
11 | 4.59 | CCC(=O)Sc1c(-c2ccccc2)nc2n(C)c3ccccc3n12 [Compound 87, 3-(Propionyl)thio-2-phenyl-9-methyl-9H-imidazo[1,2-a]benzimidazole] | 53.8%
12 | 5.65 | COCC(=O)Sc1c(-c2ccccc2)nc2nc3cccccc3n12 [Compound 43, 3-(Methoxyacetyl)thio-2-phenyl-cyclohept[d]imidazo[1,2-a]imidazole] | 53.8%
13 | 5.06 | COCCC(=O)Sc1c(-c2ccccc2)nc2nc3cccccc3n12 [Compound 44, 3-(3-Methoxypropionyl)thio-2-phenyl-cyclohept[d]imidazo[1,2-a]imidazole] | 80.7%
14 | 5.61 | CC(=O)Sc1c(-c2ccccc2)nc2nc3cccccc3n12 [Compound 34, 3-(Acetyl)thio-2-phenyl-cyclohept[d]imidazo[1,2-a]imidazole] | 76.6%
15 | – | CC(=O)Sc1c(C)nc2nc3cccccc3n12 [Compound 65, 3-(Acetyl)thio-2-methyl-cyclohept[d]imidazo[1,2-a]imidazole] | 68.8%
16 | 5.51 | C#CCSc1c2ccccn2c2nc3c(n12)CCCCC3 [Compound 18] | –
17 | 4.74 | CCC(=O)Sc1c2ccccn2c2nc3c(n12)CCCCC3 [Compound 21, 13-(Propionyl)thio-pyrido[1',2':3,4]imidazo[1,2-a]-7,8,9,10,11pentahydro-cycloheptimidazole fumarate] | 64.9%
18 | – | Cc1nc2nc3cccccc3n2c1SC(=O)c1ccccn1 [Compound 76, 3-(Picolinoyl)thio-2-methyl-cyclohept[d]imidazo[1,2-a]imidazole] | 83.7%
19 | – | CCCCC(=O)Sc1c(C)nc2nc3cccccc3n12 [Compound 82, 3-(valeryl)thio-2-methyl-cyclohept [d]imidazo[1,2-a]imidazole] | 81.2%
20 | 4.78 | C=CCSc1c2ccccn2c2nc3c(n12)CCCCC3 [Compound 16, 13-(2-Propenyl)thio-pyrido[1',2':3,4]imidazo[1,2-a]-7,8,9,10,11pentahydro-cycloheptimidazole] | –
21 | – | Cc1nc2nc3cccccc3n2c1SC(=O)c1ccccc1 [Compound 77, 3-(Benzoyl)thio-2-methyl-cyclohept[d]imidazo[1,2-a]imidazole] | 82.5%
22 | 6.10 | CC(=O)Sc1c(-c2ccc(Cl)cc2)nc2nc3cccccc3n12 [Compound 57, 3-(acetyl)thio-2-(4-chlorophenyl)-cyclohept[d]imidazo[1,2-a]imidazole] | –
23 | 4.98 | CCC(=O)Sc1c(-c2ccccc2)nc2nc3cccccc3n12 [Compound 35, 3-(Propionyl)thio-2-phenyl-cyclohept[d]imidazo[1,2-a]imidazole] | 54%
24 | 4.80 | Cn1ccn2c(SC(=O)COc3ccccc3)c(-c3ccccc3)nc12 [Compound 92, 5-(Phenoxyacetyl)thio-6-phenyl-1-methyl-1H-imidazo[1,2-a]imidazole] | 65.6%
25 | 5.71 | CCCCC(=O)Sc1c(-c2ccccc2)nc2nc3ccc(C(C)C)ccc3n12 [Compound 53, 3-(valeryl)thio-2-phenyl-7-isopropyl-cyclohept[d]imidazo[1,2-a]imidazole] | 73.7%
26 | 5.57 | O=C(Sc1c(-c2ccccc2)nc2nc3cccccc3n12)c1ccccn1 [Compound 48, 3-(Picolinoyl)thio-2-phenyl-cyclohept[d]imidazo[1,2-a]imidazole] | –
27 | – | Cc1nc2nc3cccccc3n2c1SC(=O)C(C)(C)C [Compound 68, 3-(Pivaloyl)thio-2-methyl-cyclohept[d]imidazo[1,2-a]imidazole] | 73.9%
